Laboratory results from article PMC11257039, “VCP activator reverses nuclear proteostasis defects and enhances TDP-43 aggregate clearance in multisystem proteinopathy models” (The Journal of Clinical Investigation, 2024).
Several values for one entry are separate records, joined by “and”; a condition that tells them apart may be missing. Equal entries are not always repeated. Residues, ends and D or L forms follow the SMILES beside them. *: point of attachment. Cbz = O=C(OCc1ccccc1)*

Experiments:
Format in all cases: cell-based
[1] = system: WT HeLa cells expressing TDP-4FL; assay: Immunofluorescence of TDP-4FL inclusion morphology, WT HeLa; settings: for Proportion of Morphology: Aggregate / Proportion of Morphology: Anisosome: WT
Method: (§1) HeLa Cells were plated onto glass coverslips and transfected with TDP-4FL using Fugene HD for 24 hours. Cells were fixed with 4% paraformaldehyde (Electron Microscopy Sciences), permeabilized with 0.1% Triton-X (Thermo Fisher Scientific), and blocked with 2% FBS DPBS. Primary antibodies were diluted in 2% FBS DPBS. Cells were stained with 300 nM DAPI, and coverslips were mounted onto glass slides using ProLong Glass Antifade Mountant (Thermo Fisher Scientific). Confocal images were obtained using a Leica TCS SPE laser scanning confocal microscope.
(A) High power magnification immunofluorescence confocal images of HeLa cells expressing TDP-4FL stained for myc-TDP (green) Scale bar, 5 µm. […]
(C) Representative confocal microscopy immunofluorescence confocal images of HeLa cells […]
(§2) yellow represent cells that were categorized as anisosome morphology. Nuclei outline in white represent cells that were categorized as aggregate morphology. Cells with approximately more than 50% anisosome inclusions were categorized as anisosome morphology whereas cells with approximately more than 50% aggregate-like inclusions were categorized as aggregate morphology. Binucleate cells were excluded from the total counts. Scale bar, 10 µm.
(§3) (1 picture or pasted object on this page, not shown here)

[2] = system: A232E HeLa cells expressing TDP-4FL; assay: Immunofluorescence of TDP-4FL inclusion morphology, A232E HeLa
Method: as §1, with “microscope. Primary antibodies used include mouse anti-Myc (9E10), rabbit anti-Myc (ab9106), mouse anti-VCP (NB120-11433), and mouse anti-ubiquitin (ST1200, Millipore) with Alexa Flour 488 or 568 (Invitrogen) as secondary antibodies. […]” for “microscope.”
(§4) morphologies with MG132 treatment.
(§5) (A) High power magnification immunofluorescence confocal images of HeLa cells expressing TDP-4FL stained for myc-TDP (green) Scale bar, 5 µm. (B) Immunofluorescence confocal images of HeLa cells treated with or without 5% 1’6-Hexanediol for 10 minutes stained for myc-TDP (green) or DAPI (blue). Scale bar, 5 µm. (C) Representative confocal microscopy immunofluorescence confocal images of HeLa cells […]
as §2, §3

[3] = system: R155H HeLa cells expressing TDP-4FL; assay: Immunofluorescence of TDP-4FL inclusion morphology, R155H HeLa
Method: as §1, with “microscope. Primary antibodies used include mouse anti-Myc (9E10), rabbit anti-Myc (ab9106), mouse anti-VCP (NB120-11433), and mouse anti-ubiquitin (ST1200, Millipore) with Alexa Flour 488 or 568 (Invitrogen) as secondary antibodies. […]” for “microscope.”
as §4, §5, §2, §3

CC(C)C[C@@H](C=O)NC(=O)[C@H](CC(C)C)NC(=O)[C@H](CC(C)C)NC(=O)OCc1ccccc1 [MG132] (Cbz-Leu-Leu-Leu-aldehyde)
TDP-4FL inclusion size and morphology upon proteasome inhibition ([1]; 4 μM MG132, 1 μM ixazomib or 1 μM epoxomicin, 3 or 6 hours): coalesced into larger, irregularly shaped aggregates
Proportion of Morphology: Aggregate ([1]; MG132 3 hours): 0.538 and 0.500 and 0.591 and 0.474
Proportion of Morphology: Anisosome ([1]; MG132 3 hours): 0.462 and 0.500 and 0.409 and 0.526
Proportion of Morphology: Aggregate ([1]; MG132 6 hours): 0.636 and 0.719 and 0.766
Proportion of Morphology: Anisosome ([1]; MG132 6 hours): 0.364 and 0.281 and 0.234
Proportion of Morphology: Aggregate ([2]; MG132 3 hours): 0.604 and 0.568 and 0.630 and 0.595
Proportion of Morphology: Anisosome ([2]; MG132 3 hours): 0.396 and 0.432 and 0.370 and 0.405
Proportion of Morphology: Aggregate ([2]; MG132 6 hours): 0.766 and 0.785 and 0.833
Proportion of Morphology: Anisosome ([2]; MG132 6 hours): 0.234 and 0.215 and 0.167
Proportion of Morphology: Aggregate ([3]; MG132 3 hours): 0.608 and 0.623 and 0.684 and 0.640
Proportion of Morphology: Anisosome ([3]; MG132 3 hours): 0.392 and 0.377 and 0.316 and 0.360
Proportion of Morphology: Aggregate ([3]; MG132 6 hours): 0.768 and 0.744 and 0.727
Proportion of Morphology: Anisosome ([3]; MG132 6 hours): 0.232 and 0.256 and 0.273
